Test results taken from patent publication US9375000B2, “Pesticidal arylpyrrolidines” (Bayer Intellectual Property GmbH, priority 2011, dated 2016).
Like-named read-outs stand apart in the source and are kept apart here.

What was measured:
[1] = system: Tobacco Cutworm (Spodoptera litura) Larvae; test: Tobacco cutworm (Spodoptera litura) larvae, sweet potato leaf dip test; format: in vivo; conditions: dead larvae after 7 days
Summary of the method: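 Sweet potato leaves were dipped in DMF/emulsifier test solution at the set concentration and air-dried. Ten third-instar S. litura larvae were placed per dish at 25 °C, with fresh leaves added on days 2 and 4. Mortality was counted on day 7, given as % insecticidal activity averaged over two dishes.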

[2] = system: Two-Spotted Spider Mite (Tetranychus urticae); test: Two-spotted spider mite (Tetranychus urticae) spray test on kidney bean; format: in vivo; conditions: after 7 days
Summary of the method: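 Kidney bean plants at the two-leaf stage carried 50-100 adult mites and were sprayed one day later with compound in DMF/polyoxyethylene alkyl phenyl ether diluted in water. Ammonium salt and penetration enhancer at 1000 ppm were added if needed. Acaricidal activity (% mites killed) was scored after 7 days in a greenhouse.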

[3] = system: Cucurbit Leaf Beetle (Aulacophora femoralis); test: Cucurbit leaf beetle (Aulacophora femoralis) cucumber leaf dip test; format: in vivo; conditions: after 7 days
Summary of the method: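 Cucumber leaves dipped in compound formulated with DMF and polyoxyethylene alkyl phenyl ether, diluted in water, with ammonium salt or ammonium salt plus penetration enhancer at 1000 ppm added if necessary; dried leaves placed on sterilized soil with five second-instar larvae. Kept at 25° C; larval mortality counted after 7 days.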

[4] = log P by HPLC on reversed phase columns (EEC directive 79/831 Annex V.A8); format: physicochemical
Experimental: Calibration was done with not branched alkan2-ones (with 3 to 16 carbon atoms) with known log P-values (measurement of log P values using retention times with linear interpolation between successive alkanones). lambda-maX-values were determined using UV-spectra from 200 nm to 400 nm and the peak values of the chromatographic signals.

[5] = system: Larvae of Spodoptera litura; test: Larvae of Spodoptera litura, method using artificial feeds; format: in vivo; conditions: artificial feed, after 7 days
Summary of the method: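 Compound formulated in dimethylformamide with polyoxyethylene alkyl phenyl ether emulsifier, water-diluted and poured onto artificial diet. Five 3rd-instar Spodoptera litura larvae per cup, held at 25° C and 50-60% humidity. Mortality after 7 days expressed as pesticidal ratio.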

[6] = system: Thrips palmi; test: Thrips palmi spray test (THRIPL); format: in vivo; conditions: after 6 days
Summary of the method: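 Cucumber seedlings sprayed with compound formulated in DMF/polyoxyethylene alkyl phenyl ether and diluted in water, ammonium salt ± penetration enhancer at 1000 ppm added if needed. About 100 T. palmi eggs attached, plants held caged at 100% humidity, 23 °C. Percent activity scored from feeding damage after 6 days, 100 = no damage, 0 = as untreated.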

[7] = system: green peach aphids (Myzus persicae); test: Myzus persicae spray test (MYZUPE); format: in vivo; conditions: after 6 days
Experimental: Unless not mentioned otherwise, the test solutions were prepared as follows:
Solvent: 3 parts by weight Dimethylformamide
Emulsifier: 1 part by weight Polyoxyethylene alkyl phenyl ether
In order to make an appropriate formulation of an active compound, 1 part by weight of the active compound is mixed with the above mentioned amount of solvent and emulsifier and the mixture is diluted with water to a prescribed concentration. Ammonium salt or ammonium salt and penetration enhancer in a dosage of 1000 ppm are added to the desired concentration if necessary.
1 day before treatment, green peach aphids (Myzus persicae) are inoculated onto the testing plants, about 50 heads per leaf, 100 for 1 pot. A paper label is placed on each pot. Solutions are sprayed directly onto both insects and plants. After drying, the pots are placed in the greenhouse at 20° C.-25° C. After 6 days mortality in % is determined. An insecticidal activity of 100% means that all aphids were killed, whereas an insecticidal activity of 0% means that no aphid was killed.

[8] = system: Nymphs of the tick Amblyomma hebraeum; test: Amblyomma hebraeum test (AMBYHE), nymph immersion; format: in vivo; conditions: application rate 100 ppm; immersion one minute; 42 days
Experimental: Solvent: Dimethyl sulfoxide
To produce a suitable preparation of active compound, 10 mg of active compound are dissolved in 0.5 ml solvent, and the concentrate is diluted with water to the desired concentration. Nymphs of the tick Amblyomma hebraeum are placed in perforated plastic beakers and immersed in aqueous compound solution for one minute. Ticks are transferred to a filter paper in a petridish and incubated in a climate chamber for 42 days. After the specified period of time, mortality in % is determined. 100% means that all the ticks have been killed; 0% means that none of the ticks have been killed.

[9] = system: Ctenocephalides felis; test: Test against Ctenocephalides felis (CTECFE), blood feeding; format: in vivo; conditions: application rate 100 ppm in cattle blood; after 2 days
Experimental: (§1) Solvent: dimethyl sulfoxide
To produce a suitable preparation of active compound, 10 mg of active compound are dissolved in 0.5 ml solvent, and the concentrate is diluted with cattle blood to the desired concentration. Approximately 20 adult unfed (Ctenocepahlides felis) are placed in flea chambers. The blood chamber, sealed with parafilm on the bottom, are filled with cattle blood supplied with compound solution and placed on top of the flea chamber, so that the fleas are able to suck the blood. The blood chamber is heated to 37° C. whereas the flea chamber is kept at room temperature.
After 2 days mortality in % is determined. 100% means that all the fleas have been killed; 0% means that none of the fleas have been killed.

[10] = system: Musca domestica; test: Test against Musca domestica; format: in vivo; conditions: application rate 100 ppm; after 2 days
Experimental: as §1
To produce a suitable preparation of active compound, 10 mg of active compound are dissolved in 0.5 ml solvent, and the concentrate is diluted with water to the desired concentration. Prior to the assay, a piece of kitchen sponge is soaked with a mixture of sugar and compound solution and placed into a container. 10 adults (Musca domestica) are placed into the container and closed with a perforated lid. After 2 days mortality in % is determined. 100% means that all the flies have been killed; 0% means that none of the flies have been killed.

[11] = system: adult engorged female Boophilus microplus ticks; test: Test against Boophilus microplus (dip); format: in vivo; conditions: application rate 100 ppm; dip; after 7 days
Experimental: as §1
To produce a suitable preparation of active compound, 10 mg of active compound are dissolved in 0.5 ml solvent, and the concentrate is diluted with water to the desired concentration. Eight to ten adult engorged female Boophilus microplus ticks are placed in perforated plastic beakers and immersed in aqueous compound solution for one minute. Ticks are transferred to a filter paper in a plastic tray. Egg deposition of fertile eggs is monitored after. After 7 days mortality in % is determined. 100% means that all the ticks have been killed; 0% means that none of the ticks have been killed.

[12] = active compound concentration 4 ppm
[13] = active compound concentration 20 ppm
[14] = active compound concentration 100 ppm

Row | SMILES | insecticidal activity [1, 12] [%] | acaricidal activity [2, 12] [%] | insecticidal activity [3, 13] [%] | insecticidal activity (pesticidal ratio) [5, 12] [%] | insecticidal activity (pesticidal ratio) [5, 13] [%] | insecticidal activity [3, 12] [%] | insecticidal activity (by feeding damage degree) [6, 13] [%] | other results
1 | O=C(NCc1ccc(N2CCC(c3cc(Cl)cc(Cl)c3)(C(F)(F)F)C2O)cc1F)C1CC1 (mixture of isomers) [A1-99] | 100 | 90 | 100 | – | – | – | – | log P [4]: 3.47
2 | COCCC(=O)NCc1ccc(N2CCC(c3cc(C(F)(F)F)cc(C(F)(F)F)c3)(C(F)(F)F)C2O)nc1Br (mixture of isomers) [A3-162] | – | – | – | – | – | – | – | insecticidal activity [1, 13]: 100%; acaricidal activity [2, 13]: 90%; logP [4]: 3.71
3 | O=C(NCc1ccc(N2CCC(c3cc(Cl)c(F)c(Cl)c3F)(C(F)(F)F)C2O)nc1C(F)(F)F)C1CC1 (mixture of isomers) [A3-214] | – | 100 | 100 | 100 | 100 | 100 | – | acaricidal activity [2, 13]: 100%; insecticidal activity (by feeding damage degree) [6, 12]: 90%; insecticidal activity (mortality) [7, 13]: 100%
4 | O=C(NCc1ccc(N2CCC(c3ccc(F)c(C(F)(F)F)c3)(C(F)(F)F)C2O)nc1C(F)(F)F)C1CC1 (mixture of isomers) [A3-236] | – | 100 | 100 | 100 | 100 | 100 | 98 | activity (mortality) [8]: 100%
5 | CCC(=O)NCc1ccc(N2CCC(c3cc(F)cc(C(F)(F)F)c3)(C(F)(F)F)C2O)nc1C(F)(F)F (mixture of isomers) [A3-244] | – | 90 | 100 | 100 | 100 | 100 | – | activity (mortality) [8]: 100%
6 | O=C(CC(F)(F)F)NCc1ccc(N2CCC(c3cc(Cl)cc(C(F)(F)F)c3)(C(F)(F)F)C2O)nc1C(F)(F)F (racemic) [A3-271] | – | 100 | 100 | 100 | 100 | 100 | 98 | acaricidal activity [2, 13]: 100%; activity (mortality) [8]: 100%
7 | O=C(NCc1ccc(N2CCC(c3cc(Cl)c(Cl)c(Cl)c3)(C(F)(F)F)C2O)cc1Cl)C1CC1 (stereo not drawn) [A1-16] | – | 100 | – | 100 | – | 100 | – | activity (mortality) [9]: 90%; activity (mortality) [10]: 80%; insecticidal activity (by feeding damage degree) [6, 14]: 98%; insecticidal activity (mortality) [7, 14]: 100%
8 | O=C(CC(F)(F)F)NCc1ccc(N2CCC(c3cc(Cl)c(Cl)c(Cl)c3)(C(F)(F)F)C2O)cc1Cl (stereo not drawn) [A1-18] | – | 100 | – | 100 | – | 100 | – | insecticidal activity (by feeding damage degree) [6, 14]: 90%; insecticidal activity (mortality) [7, 14]: 100%
9 | CN(C)C(=O)NCc1ccc(N2CCC(c3cc(Cl)cc(Cl)c3)(C(F)(F)F)C2O)cc1C(F)(F)F (stereo not drawn) [A1-368] | – | – | – | – | – | – | – | acaricidal activity [2, 14]: 100%; log P ([4]; HPLC on reversed phase columns): 3.81
10 | CCNC(=O)NCc1ccc(N2CCC(c3cc(Cl)cc(Cl)c3)(C(F)(F)F)C2O)cc1C(F)(F)F (stereo not drawn) [A1-369] | 100 | – | – | – | – | – | – | acaricidal activity [2, 14]: 100%; log P ([4]; HPLC on reversed phase columns): 3.73
11 | O=C(NCc1ccc(N2CCC(c3cc(Cl)c(Cl)c(Cl)c3)(C(F)(F)F)C2O)nc1Cl)C1CC1 (stereo not drawn) [A3-104] | 100 | 100 | 100 | – | – | – | 98 | insecticidal activity (mortality) [7, 13]: 100%
12 | O=C(NCc1ccc(N2CCC(c3cc(C(F)(F)F)cc(C(F)(F)F)c3)(C(F)(F)F)C2O)nc1Cl)C1CC1 (stereo not drawn) [A3-148] | – | – | – | 100 | – | 100 | – | insecticidal activity (by feeding damage degree) [6, 14]: 90%; logP [4]: 3.96
13 | O=C(NCc1cc(F)c(N2CCC(c3cc(C(F)(F)F)cc(C(F)(F)F)c3)(C(F)(F)F)C2O)nc1Cl)C1CC1 (stereo not drawn) [A3-381] | – | – | 100 | – | 100 | 100 | – | activity (mortality) [11]: 80%; insecticidal activity (by feeding damage degree) [6, 14]: 98%; insecticidal activity (mortality) [7, 14]: 98%
14 | CCC(=O)NCc1cnc(N2CCC(c3cc(Cl)c(F)c(Cl)c3)(C(F)(F)F)C2O)nc1C(F)(F)F (stereo not drawn) [A4-101] | 100 | 100 | 100 | – | – | – | 98 | insecticidal activity (mortality) [7, 13]: 100%
15 | O=C(NCc1cnc(N2CCC(c3cc(Cl)c(F)c(Cl)c3)(C(F)(F)F)C2O)nc1C(F)(F)F)C1CC1 (stereo not drawn) [A4-104] | 100 | 100 | 100 | – | – | – | 98 | activity (mortality) [8]: 100%
